These results are taken from paper PMC4865845, “A human genome-wide loss-of-function screen identifies effective chikungunya antiviral drugs” (Nature Communications, 2016).

In this data set the test system is CHIKV. The format is cell-based, chikungunya virus.

With “s37727 (GTAGCAGTGTGGTAGGATA; chemistry not given here)”, the Score_si4 is reported as -0.44. With “s38816 (GAACATCTGGATCAAGAGA; chemistry not given here)”, the Score_si3 is given as 1.02. “s16459 (GATGGATCCATGTAATACA; chemistry not given here)”: the Score_si4 stood at 0.81. In the case of “s6670 (sense CAACAGGAGGAAGACTTTA; chemistry not given here)”, the Score_si4 is -0.15.

With “Hs_WDR40A_2 (AACACTGATAATAGGAAGTAA; chemistry not given here) [reference compound]”, the Score_si4 is -0.22. The substance “Hs_AQP3_3 (CTGGATCAAGCTGCCCATCTA; chemistry not given here)” yielded a Score_si1 of 1.31. With “s9324 (ACAACTTCAGTGCTGATCA; chemistry not given here)”, the Score_si3 was 0.83. For “Hs_AOF2_2 (ACATCTTACCTTAGTCATCAA; chemistry not given here)”, the Score_si4 worked out at 0.88. The substance “Hs_CLTC_11 (sense ACAGTTCTACTTAGAATTCAA; chemistry not given here)” registered a Score_si1 of 2.42.

As for “s37715 (CCGGAGAACCTGAAACTCA; chemistry not given here)”, the Score_si2 amounted to 1.43.

Substance “Hs_TGIF_4 (sense TACCACTGTGACTGCATTGAA; chemistry not given here)” came in with a Score_si4 of 0.65. Regarding “s31791 (GACCTTAAGATACCAGTAT; chemistry not given here)”, the Score_si2 stood at 1.71.

For “Hs_KRTHA2_2 (sense ATGGTTGTGAACATTGATAAT; chemistry not given here)”, the Score_si2 is listed as 1.02. As to “Hs_PP3856_2 (CTGGCTGGAGTCAGTCCTCAT; chemistry not given here)”, the Score_si1 amounted to 2.53.

In the case of “s5030 (sense GGTATGCGACGGGAAAGTA; chemistry not given here)”, the Score_si3 is reported as 1.75. With “s17019 (CCACGTGATAAATCAAGAA; chemistry not given here)”, the Score_si2 worked out at 1.29. Take “Hs_LOXL2_4 (sense CTCGAGATTCCGGAAAGCATA; chemistry not given here)”: the Score_si4 turned out to be 0.97. “Hs_TGIF_1 (sense TACCCAGAGGACACTTGTAAA; chemistry not given here)” displayed a Score_si1 of 1.41. Regarding “s21552 (sense TCGCTTCTGTATTTATGTT; chemistry not given here)”, the Score_si2 amounted to 1.41. “Hs_KCTD10_1 (sense AAGGCTTTGTTTAGGGATCAA; chemistry not given here)” gave a Score_si1 of 2.04. As to “s18908 (sense GCAGATCACATGAAGAGAA; chemistry not given here)”, the Score_si2 is reported as 1.75.

For “s10856 (sense AAGTTTACGTGAACAAATT; chemistry not given here)”, the Score_si3 is on record as -0.27. The same measure, in the same setting: the value for “Hs_DKFZP564C186_2 (CACGGACAGTGCTGCATTCAA; chemistry not given here)” was 1.17; that for “s2665 (sense GCTTCAGGATGTGCCCAAA; chemistry not given here)” was 0.58.

For the substance “s11515 (sense GGATAACACTGTACAAGCT; chemistry not given here)”, the Score_si1 amounted to 1.79.

In turn, “s51652 (sense CCAGGCCCATTCTACAATA; chemistry not given here)” yielded a Score_si4 of 0.04. “Hs_ITGB4BP_2 (sense AAGCTACTGTGTCTTCAGCAA; chemistry not given here)” came in with a Score_si4 of 1.08.

“Hs_NAG_2 (CAGACAGAAATTCTTTATCAA; chemistry not given here)” returned a Score_si1 of 2.66. The same measure, in the same setting: the value for “Hs_PSD3_1 (sense CTCCATTGTCTTACTAACAAA; chemistry not given here) [reference compound]” was -3.63; that for “Hs_CNOT1_2 (sense CCAAGTTTGAATTTCAAGGAA; chemistry not given here)” was 2.81. Consider “s15564 (sense GCTTGAAGCTGAAAAGCGA; chemistry not given here) [reference compound]”, for which the Score_si4 was 1.62. Substance “Hs_ENTPD2_1 (CACGTCCATGTTTATCTACAA; chemistry not given here)” came in with a Score_si2 of 1.25. As for “Hs_CNOT1_1 (sense CAGCTGGAATGGCTATGATTA; chemistry not given here)”, the Score_si2 came out at 2.61. “Hs_ACO2_5 (CGGGAAGACATTGCCAATCTA; chemistry not given here)” returned a Score_si1 of 2.43.

As to “s29017 (GTCAGTACTTTATCTCGTT; chemistry not given here)”, the Score_si2 amounted to 1.25. As to “s195060 (sense CCAGATCTATGAATTGGAA; chemistry not given here)”, the Score_si2 was determined as 1.92. Turning to “s16634 (GCATAGTTTCGGTCATCTA; chemistry not given here)”, the Score_si1 is listed as 2.03.

Take “s31659 (CCTCTGAGGTGATCAATGA; chemistry not given here)”: the Score_si3 was 1.43. For “s916 (GCATCGCAAACTTCACCAA; chemistry not given here)”, the Score_si3 is on record as 1.06.

On to “s51651 (sense TGAGCAGTGAGAACCCATA; chemistry not given here)”, for which the Score_si2 is reported as 1.55. Still for that read-out and setting: the value for “s16996 (CAACATTGGTGGGAATGCA; chemistry not given here)” was 1.51.

In turn, “Hs_ZA20D1_2 (CAGGATGACATCGTTCAAGAA; chemistry not given here)” came in with a Score_si3 of 1.15. Regarding “Hs_ANKRD9_2 (CTCCCAGGAGCTAACGTATAA; chemistry not given here)”, the Score_si2 worked out at 2.08. For “s36691 (CAGATGTTATGGATATAAT; chemistry not given here) [reference compound]”, the Score_si1 is reported as -1.07. In the case of “s81 (sense GGATGATTTAGAATTGTCA; chemistry not given here)”, the Score_si3 was determined as 2.08. The same measure, in the same setting: the value for “Hs_CLK1_2 (sense AACGTGATGAACGCACCTTAA; chemistry not given here)” was 1.36; that for “s6672 (sense GACTAATGAACTACTAAAA; chemistry not given here)” was 0.16.

“Hs_POLR1A_2 (TCGGGAGGAATTAGAACAATA; chemistry not given here)” yielded a Score_si2 of 1.23. Regarding “Hs_LTBP3_1 (CCGGGACAGATCTCAGCAGAA; chemistry not given here)”, the Score_si2 is listed as 1.9. “Hs_MAP3K14_1 (CAGGACTCACGTAGCATTAAA; chemistry not given here)” registered a Score_si2 of 1.59. Same read-out and setting: as for “Hs_RXRA_4 (sense CTCATCGGCCTTGTAGTTGTA; chemistry not given here)”, the figure is 1.74. The substance “s195299 (sense ACACATATGTGATCAAGCT; chemistry not given here)” gave a Score_si4 of 0.72. For “Hs_IQGAP1_4 (sense TGCCCACTTAAGCATCATTAA; chemistry not given here)”, the Score_si3 is listed as 0.98. The substance “Hs_DLD_2 (CCCACTTATTCAAACAGAATA; chemistry not given here)” came in with a Score_si4 of 0.87.

Take “Hs_CLK1_4 (sense CCGTATTTCCAACACACGATA; chemistry not given here)”: the Score_si4 was found to be 0.91. Turning to “s8004 (sense GTGGAGGAATGGTTCAATA; chemistry not given here)”, the Score_si3 is 0.87.

As to “s194476 (sense GCATGCTGCTGGCAGATCA; chemistry not given here)”, the Score_si2 is given as 1.47. For “s9628 (GACCTAAAGAAGGAGATTA; chemistry not given here)”, the Score_si4 is listed as 1.13. Same read-out and setting: as for “s28378 (sense CATTGTCACTTATTCGACT; chemistry not given here)”, the figure is 1.57; as for “s29015 (GAGAGTATATTGACTATGA; chemistry not given here)”, 0.52. As for “Hs_TREX2_1 (CACAATGGCTTTGATTATGAT; chemistry not given here) [reference compound]”, the Score_si1 was -2.42. On the same count and under the same terms, as for “Hs_TAZ_2 (sense CCGCCACATCTGGAACCTGAA; chemistry not given here)”, the figure is 2.45; as for “Hs_APEX2_3 (AGGGCCCTTCATCGATAGCTA; chemistry not given here) [reference compound]”, -3.29.

With “Hs_RPS6KC1_1 (sense CCGGGTTGTTTCACGAAGAAA; chemistry not given here) [reference compound]”, the Score_si2 is on record as -1.09. For the substance “Hs_ODZ3_4 (CACGAGGAAACTACAATTCCA; chemistry not given here)”, the Score_si3 came to 1. For the substance “s30118 (CCTGCTATCTTGGTTCCAA; chemistry not given here)”, the Score_si4 worked out at 0.62. “Hs_SYMPK_2 (sense CAGCCTGGTGACACAGTTCAA; chemistry not given here)”: the Score_si2 was 1.86. Still for that read-out and setting: as for “Hs_UBE2C_9 (AGCCCTTGTATATTAAATAAA; chemistry not given here) [reference compound]”, the figure is -0.83. “Hs_P4HB_6 (AAGATGAACTGTAATACGCAA; chemistry not given here)” came in with a Score_si1 of 1.38. The substance “Hs_RXRA_1 (sense TTCGTGTAAGCAAGTACATAA; chemistry not given here)” showed a Score_si1 of 2.2. The substance “s25487 (sense AGTATTTGTTGGTTCATAA; chemistry not given here)” had a Score_si2 of 1.54. On the same count and under the same terms, as for “s5031 (sense CCGTGGACCTGATCATCAA; chemistry not given here)”, the figure is 2.04. As to “s8541 (CAATCTCCGGAGGCACGAA; chemistry not given here)”, the Score_si3 is on record as 0.12.

Turning to “Hs_POLR1A_1 (AAGGTTGATGACTACAGTCAA; chemistry not given here)”, the Score_si1 is recorded as 1.93. The substance “Hs_RTN2_1 (sense TTGGATTTACACTGTAATAAA; chemistry not given here)” registered a Score_si4 of 0.49.
